Assay results: US9295671B2, “Benzenesulfonamide derivatives of quinoxaline, pharmaceutical compositions thereof, and their use in methods for treating cancer” (NEUPHARMA, INC., priority 2011, dated 2016)
pIC50: −log10 of the molar value.

Legend:
A375 tumor xenograft = experiment: Inhibition of tumor growth in A375 tumor xenograft model; type: in vivo, BALB/c female nude mice; settings: nude mice, Compound 12.5 mg/kg b.i.d. × 20 i.g., Cisplatin 6 mg/kg q7d × 3 i.p.
Procedure: Cells were implanted in BALB/c female nude mice and grown as tumor xenografts. When tumors achieved 120-200 mm^3, mice were assigned into treatment and control groups using randomized block design based upon their tumor volumes. Each group contained 6 tumor-bearing mice. Tumors were measured twice weekly in two dimensions using a caliper, and the tumor volume was calculated from two-dimensional measurements using the equation V=0.5×a×b^2 where a and b are the long and short diameters of the tumor, respectively. Relative tumor volume (RTV) was defined as TVt/TVi, the ratio of the volume on a given day (TVt) and the volume at the start of treatment (TVi). Relative tumor growth rate (T/C) was defined as RTVT/RTVC, the ratio of relative tumor volume of treatment group (RTVT) and relative tumor volume of control group (RTVC) on a given day. Inhibition of tumor growth in a A375 tumor xenograft model is shown below in Table 6 for a compound of Table 1.

[1] = tested on: CHL-1 (human melanoma cell, BRAF wild type); experiment: Inhibition of cancer cell growth, MTT or MTS assay, CHL-1; type: cell-based; settings: 72 h, highest concentration 100 μM
Procedure: (§1) A375 (human melanoma cell, BRAF V600E Mutant), CHL-1 (human melanoma cell, BRAF wild type), SK-MEL-28 (human melanoma cell, BRAF V600E Mutant) and SK-MEL-31(human melanoma cell, Braf WT Mutant) were purchased from ATCC (American Type Culture Collection, Manassas, Va.). All cell lines were maintained in RPMI 1640 (Hyclone) or DMEM (Hyclone) supplemented with 10% fetal bovine serum (FBS, Hyclone), glutamine (2 mM, Hyclone), and antibiotics (penicillin 100 U/mL and streptomycin 50 μg/mL) at 37° C. in a humidified atmosphere of 5% CO2 in air.
(§2) To test IC50 of inhibition of individual compounds against each cell line, A375, SK-MEL-28and SK-MEL-31 cells were first plated in 96-well plates at densities of 3000 cells/well, and CHL-1 2500 cells/well. Cells were then incubated to allow cells to adhere and grow for 24 h. Cells were then treated with a series of concentrations of compounds for 72 h. The highest concentration of compounds was 10 μM for A375 and SK-MEL-28 cells and 100 μM for CHL-1 and SK-MEL-31 cells. Cells were then removed from the incubator and medium was removed by inverting and tapping the plates. 100 μL of MTT (0.5 mg/ml) or 10 μL or MTS was added to each well followed by an incubated at 37° C. for 4 h. Then MTT was removed and 200 μL of DMSO was added to each well, followed by reading the ODs at 570 nm after a 5 second shaking cycle in a 96-well spectrophotometer. For MTS method, MTS was not removed, and the incubated solutions were directly put in a 96-well spectrophotometer for the reading of the ODs at 492 nm.
(§3) IC50 was calculated by plotting the concentration of compound vs the percentage of inhibition in treated wells using GraphPad Prism 5. […] The scale utilized in Table 5 is as follows: +++ less than 500 nM; ++ between 500 nM and 1 μM; and + greater than 1 μM.

[2] = tested on: A375 (human melanoma cell, BRAF V600E Mutant); experiment: Inhibition of cancer cell growth, MTT or MTS assay, A375; type: cell-based; settings: A-375, 72 h, highest concentration 10 μM (Table 5)
Procedure: as §1, §2, §3

BRAF V600E [3] = target: T1, BRAF V600E (Homo sapiens, UniProt P15056, V600E); experiment: LanthaScreen kinase assay, BRAF V600E; type: biochemical; settings: ATP 10 μM
T1 construct: purchased Invitrogen
T1 sequence (P15056 whole entry V600E): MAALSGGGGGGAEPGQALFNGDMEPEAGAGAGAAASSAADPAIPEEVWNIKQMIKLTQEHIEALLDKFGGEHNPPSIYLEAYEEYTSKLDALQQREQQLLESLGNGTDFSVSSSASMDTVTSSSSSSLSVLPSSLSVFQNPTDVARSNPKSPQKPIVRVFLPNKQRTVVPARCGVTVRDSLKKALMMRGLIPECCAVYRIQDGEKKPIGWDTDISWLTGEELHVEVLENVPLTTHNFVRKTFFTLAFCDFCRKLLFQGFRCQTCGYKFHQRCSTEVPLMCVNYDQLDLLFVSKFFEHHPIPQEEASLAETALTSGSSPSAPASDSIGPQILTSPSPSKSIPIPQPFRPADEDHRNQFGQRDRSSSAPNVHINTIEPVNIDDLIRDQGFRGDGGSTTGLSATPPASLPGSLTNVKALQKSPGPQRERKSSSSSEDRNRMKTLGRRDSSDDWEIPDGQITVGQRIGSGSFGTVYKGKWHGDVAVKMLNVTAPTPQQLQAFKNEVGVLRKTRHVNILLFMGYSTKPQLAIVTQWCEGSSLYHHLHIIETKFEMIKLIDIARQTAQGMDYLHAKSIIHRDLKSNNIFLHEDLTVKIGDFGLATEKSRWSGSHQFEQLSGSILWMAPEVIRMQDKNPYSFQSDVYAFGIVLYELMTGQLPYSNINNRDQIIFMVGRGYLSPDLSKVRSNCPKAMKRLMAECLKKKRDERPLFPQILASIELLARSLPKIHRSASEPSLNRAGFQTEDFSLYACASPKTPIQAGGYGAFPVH
Procedure: (§4) The inhibitory activities of compounds against BRAF or BRAF V600E protein were measured using Invitrogne's LanthaScreen™ kinase assay which is based on fluorescein-labeled MAP2K1 as a substrate. The assay procedure is described as follows.
(§5) The scale utilized in Table 3 is as follows: ++++ less than 50 nM; +++ between 50 and 100 nM; ++ between 100 nM and 1 μM; and + greater than 1 μM.

BRAF V600E [4] = target: T1, BRAF V600E; experiment: Z′-LYTE kinase assay, BRAF V600E (Invitrogen); type: biochemical; settings: Z′-LYTE method
Procedure: (§6) Inhibitory activities of compounds against BRAF or BRAF V600E were measured by Invitrogen using Z′-LYTE® Method as briefly described in the following.
(§7) 4× Test compounds are dissolved in 1% DMSO. […] ATP solutions are diluted to a 4×ATP working concentration in Kinase Buffer (50 mM HEPES pH 7.5, 0.01% BRIJ-35, 10 mM MgCl2, 1 mM EGTA).
(§8) Reaction starts by 30-second shaking of mixture consisting of 2.5 μL4× test compound, […] and 2.5 μL 4×ATP Solution on Bar-coded Corning, low volume NBS, black 384-well plate (Corning Cat. #3676). Then the mixture is incubated for 60-minute at room temperature for the kinase reaction, followed by addition of 5 μL of a 1:1024 dilution of development reagent A and 30-second plate shake. The mixture is then incubated for another 60-minute at room temperature for development reaction. Finally fluorescence is read by plate reader.

BRAF [5] = target: T2, BRAF (Homo sapiens, UniProt P15056); experiment: LanthaScreen kinase assay, BRAF; type: biochemical; settings: ATP 1 μM
T2 construct: purchased Invitrogen
T2 sequence (P15056 whole entry): as the sequence (P15056 whole entry V600E) above, with E600V counted along it
Procedure: as §4, §5

BRAF [6] = target: T2, BRAF; experiment: Z′-LYTE kinase assay, BRAF (Invitrogen); type: biochemical; settings: Z′-LYTE method
Procedure: as §6, §7, §8

[7] = tested on: SK-MEL-31 (human melanoma cell, Braf WT Mutant); experiment: Inhibition of cancer cell growth, MTT or MTS assay, SK-MEL-31; type: cell-based; settings: 72 h, highest concentration 100 μM
Procedure: as §1, §2, §3

[8] = tested on: SK-MEL-28 (human melanoma cell, BRAF V600E Mutant); experiment: Inhibition of cancer cell growth, MTT or MTS assay, SK-MEL-28; type: cell-based; settings: 72 h, highest concentration 10 μM
Procedure: as §1, §2, §3

A549 cells = experiment: Inhibition of cancer cell growth, MTT assay, A549; type: cell-based; settings: Homo sapiens, 72 h
Procedure: (§9) Inhibition of cell growth by compounds was measured using MTT assay (Mosmann, T., Journal of Immunological Methods, 1983, 65, 55-63). Tumor cell lines were purchased from ATCC (American Type Culture Collection, Manassas, Va.). All cell lines were maintained in RPMI 1640 (Hyclone) supplemented with 10% fetal bovine serum (FBS, Hyclone), glutamine (2 mM, Hyclone), and antibiotics (penicillin 100 U/mL and streptomycin 50 μg/mL) at 37° C. in a humidified atmosphere of 5% CO2 in air. Taxol (as a positive control, Sigma) and compounds were dissolved in DMSO (Sigma), and the final concentration of DMSO in the medium was 1%. Tumor cells were plated in 96-well plates at densities of about 4000 cells/well of a 96-well plate and allowed to adhere/grow for 24 h. They were then treated with various concentrations of drug for 72 h. 3-(4,5-Dimethylthiazol-2-yl)-2,5-diphenyltetrazolium bromide (MTT, Sigma) was used to determine the number of viable cells at the time of compound addition and the number of cells remaining after 72 h compound exposure. The number of cells remaining after 72 h was compared to the number of viable cells at the time of compound addition by measuring the absorbance at 570 nm, allowing for the calculation of growth inhibition.
(§10) All concentrations of compounds were tested in triplicate and controls were averaged over 4 wells. IC50 was calculated by plotting the concentration of compound vs the percentage of inhibition in treated wells using GraphPad Prism 5.
(§11) The scale utilized in Table 4 is as follows: +++ less than 500 nM; ++ between 500 nM and 1 μM; and + greater than 1 μM.

A375 cells = experiment: Inhibition of cancer cell growth, MTT assay, A375; type: cell-based; settings: Homo sapiens, A-375, 72 h (Table 4)
Procedure: as §9, §10, §11

Row | Compound | IC50 CHL-1 [1] | pIC50 [2] | pIC50 (BRAF V600E [3]) | inhibition at 1 µM (BRAF V600E [4]) | pIC50 (BRAF [5]) | inhibition at 1 µM (BRAF [6]) | IC50 SK-MEL-31 [7] | pIC50 [8] | pIC50 (A549 cells) | pIC50 (A375 cells) | Tumor Volume Post-treatment (A375 tumor xenograft) | Tumor Volume Pre-treatment (A375 tumor xenograft) | T/C (relative tumor growth rate, RTVT/RTVC) (A375 tumor xenograft; *p < 0.05, **p < 0.01)
1 | N.N.[Cl][Pt][Cl] [Cisplatin] |  |  |  |  |  |  |  |  |  |  | 647 mm^3 | 136 mm^3 | 44.4%*
2 | CCCS(=O)(=O)Nc1ccc(F)c(C(=O)c2ccc3nccnc3c2)c1Cl [Compound C06, N-(2-chloro-4-fluoro-3-(quinoxaline-6-carbonyl)phenyl)propane-1-sulfonamide] | No inhibition | > 6.30 | > 7.30 | > 89% | 6.00 to 7.00 | 70 to 89% |  |  |  |  |  |  | 
3 | CCCS(=O)(=O)Nc1cc(F)c(F)c(C(=O)c2ccc3ncc(-c4ccc(Cl)cc4)nc3c2)c1F [Compound C12, N-(3-(3-(4-chlorophenyl)quinoxaline-6-carbonyl)-2,4,5-trifluorophenyl)propane-1-sulfonamide] | No inhibition | > 6.30 |  | > 89% |  | 70 to 89% | No inhibition | 6.00 to 6.30 |  |  |  |  | 
4 | CCCS(=O)(=O)Nc1ccc(F)c(C(=O)c2ccc3ncc(-c4ccc(Cl)cc4)nc3c2)c1F [Compound C02, N-(3-(3-(4-chlorophenyl)quinoxaline-6-carbonyl)-2,4-difluorophenyl)propane-1-sulfonamide] |  |  |  | > 89% |  | 70 to 89% |  |  | 6.00 to 6.30 | 6.00 to 6.30 |  |  | 

Further lines, with some results ahead:

Row | IC50 CHL-1 [1] | pIC50 [2] | pIC50 (BRAF V600E [3]) | inhibition at 1 µM (BRAF V600E [4]) | pIC50 (BRAF [5]) | inhibition at 1 µM (BRAF [6]) | IC50 SK-MEL-31 [7] | pIC50 [8] | pIC50 (A549 cells) | pIC50 (A375 cells) | Compound | Tumor Volume Post-treatment (A375 tumor xenograft) | Tumor Volume Pre-treatment (A375 tumor xenograft) | T/C (relative tumor growth rate, RTVT/RTVC) (A375 tumor xenograft; *p < 0.05, **p < 0.01)
5 | No inhibition | > 6.30 | > 7.30 | > 89% | 7.00 to 7.30 | > 89% | No inhibition | > 6.30 |  |  | CCCS(=O)(=O)Nc1cc(F)c(F)c(C(=O)c2ccc3nccnc3c2)c1F [Compound C04, N-(2,4,5-trifluoro-3-(quinoxaline-6-carbonyl)phenyl)propane-1-sulfonamide] |  |  | 
6 |  |  |  | > 89% |  | > 89% |  |  | < 6.00 | < 6.00 | CCCS(=O)(=O)Nc1cc(F)c(F)c(C(=O)c2ccc3ncc(N(C)CCN(C)C)nc3c2)c1F [Compound C13, N-(3-(3-((2-(dimethylamino)ethyl)(methyl)amino)quinoxaline-6-carbonyl)-2,4,5-trifluorophenyl)propane-1-sulfonamide] |  |  | 
7 |  |  |  | 70 to 89% |  | > 89% |  |  | < 6.00 | > 6.30 | CCCS(=O)(=O)Nc1cc(F)c(F)c(C(=O)c2ccc3ncc(OC)nc3c2)c1F [Compound C10, N-(2,4,5-trifluoro-3-(3-methoxyquinoxaline-6-carbonyl)phenyl)propane-1-sulfonamide] |  |  | 
8 | No inhibition | > 6.30 | > 7.30 | > 89% | 7.00 to 7.30 | > 89% | No inhibition | > 6.30 |  |  | CCCS(=O)(=O)Nc1cc(F)c(F)c(C(=O)c2ccc3ncc(N4CCOCC4)nc3c2)c1F [Compound C09, N-(2,4,5-trifluoro-3-(3-morpholinoquinoxaline-6-carbonyl)phenyl)propane-1-sulfonamide] |  |  | 
